In US5126326A (Bio-Mega, Inc., priority 1989, dated 1992):
Where a name gives a salt, the structure may show the parent alone. *1 amine or outer side, *2 acyl side, *3 side chain or, on linkers, in order; H or OH if unused. Where a SMILES comes first, the peptide text is derived from it. [ ]: non-standard residue; d: D form. The star is where a group is joined. ACHPA = O=C(C[C@H](O)[C@H](CC1CCCCC1)N[*:1])[*:2]; Carboxymethyl = O=C(O)C*; X1 = O=C(C*)OCc1ccccc1; Boc = CC(C)(C)OC(=O)*

biological target: HIV protease (Human immunodeficiency virus type 1 group M subtype B, UniProt P03366); experiment: biochemical
Method: Recombinant HIV Protease HPLC Assay:
The enzyme was stored as 10 μL aliquots at -70° C. The aliquots were diluted to 1/10th of the original concentration with buffer prior to use (enzyme working solution).
The substrate was made into 10 mM stock in DMSO and stored at -20° C. Prior to use, the stock was diluted with buffer to give a 400 μM solution substrate working solution.
Buffer: 2-(4-Morpholino)ethanesulfonic acid (50 mM), NaCl (25 mM) and EDTA (5 mM) was dissolved in distilled H2 O (90 mL) and the solution was adjusted to pH6 with concentrated aqueous NaOH. The latter solution was diluted to 100 mL with H2 O to give the buffer.
(2) The assay mixture was prepared by mixing 10 μL of the substrate working solution, 0.5 μL of the solution of the test compound in DMSO from step 1, and 10 μL of the enzyme working solution. (3) The assay mixture was incubated at 37° C. for 1 h. (4) The reaction was quenched by adding 100 μL of 2% aqueous TFA. […] Elution was monitored at 210 nm. (6) A control which was the assay mixture without the test compound, was subjected simultaneously to steps 3 to 5.
Inhibition Studies: Cleavage products and remaining parent substrate were quantified by either peak height or by integration of the appropriate HPLC peaks. Substrate conversion was calculated using the following relationship: [formula] Enzyme inhibition of the test compound was calculated as follows: [formula]
The percent inhibition of the enzyme was determined for a minimum of three different concentrations of the test compound. Thereafter, the IC50 was determined graphically by plotting the percent inhibition of the substrate against the concentration of the test compound.

| SMILES | IC50 [nM] |
| --- | --- |
| CC(C)C[C@H](NC(=O)C[C@H](O)[C@H](CC1CCCCC1)NC(=O)[C@@H](NC(=O)[C@H](Cc1ccc(OCC(=O)OCc2ccccc2)cc1)NC(=O)OC(C)(C)C)C(C)C)C(=O)N[C@@H](Cc1ccccc1)C(N)=O [Example 1] | 70 |
| CC(C)C[C@H](NC(=O)C[C@H](O)[C@H](CC1CCCCC1)NC(=O)[C@@H](NC(=O)[C@@H](N)Cc1ccc(OCC(=O)OCc2ccccc2)cc1)C(C)C)C(=O)N[C@@H](Cc1ccccc1)C(N)=O [Example 2, H-Tyr(O-AcOBzl)-Val-ACHPA-Leu-Phe-NH2.HCl] (H-Y(X1)V[ACHPA]LF-NH2) | 5 |
| CC(C)C[C@H](NC(=O)C[C@H](O)[C@H](CC1CCCCC1)NC(=O)[C@@H](NC(=O)[C@H](Cc1ccc(OCC(=O)O)cc1)NC(=O)OC(C)(C)C)C(C)C)C(=O)N[C@@H](Cc1ccccc1)C(N)=O [Example 3, Boc-Tyr(O-AcOH)-Val-ACHPA-Leu-Phe-NH2] (Boc-Y(Carboxymethyl)V[ACHPA]LF-NH2) | 52 |
| CC(C)C[C@H](NC(=O)C[C@H](O)[C@H](CC1CCCCC1)NC(=O)[C@@H](NC(=O)[C@@H](N)Cc1ccc(OCC(=O)O)cc1)C(C)C)C(=O)N[C@@H](Cc1ccccc1)C(N)=O [Example 4, H-Tyr(O-AcOH)-Val-ACHPA-Leu-Phe-NH2.HCl] (H-Y(Carboxymethyl)V[ACHPA]LF-NH2) | 10 |
| CC(C)C[C@H](NC(=O)C[C@H](O)[C@H](CC1CCCCC1)NC(=O)[C@H](Cc1ccccc1)NC(=O)[C@H](Cc1ccc(OCC(=O)O)cc1)NC(=O)OC(C)(C)C)C(=O)N[C@@H](Cc1ccccc1)C(N)=O [Example 5, Boc-Tyr(O-AcOH)-Phe-ACHPA-Leu-Phe-NH2] (Boc-Y(Carboxymethyl)F[ACHPA]LF-NH2) | 1000 |
